Test results taken from patent US20120009593A1, “ANALYSIS METHOD FOR THE IN VITRO DIAGNOSIS OF BENIGN PROSTATIC HYPERPLASIA (BPH) IN DOGS BY ASSAYING CANINE PROSTATE SPECIFIC ESTERASE, AND BPH TREATMENT FOLLOW UP” (VIRBAC SA, priority 2009, published 2012).
Values joined by “and” are separate entries in the source; they are usually repeats but may differ in a detail not shown here. Identical values can stand only once.

Columns and labels:
dogs with signs of BPH [1] = assay: Anti-androgen treatment follow up: serum CPSE level in treated dogs; assay type: in vivo, dog
Description: The CPSE concentration in the serum or plasma samples was determined by sandwich ELISA. 96-well microplates (Stripwell Costar/Corning, N.Y., USA) were coated overnight at +4° C. with monoclonal or polyclonal anti-CPSE antibodies, at a concentration of 5 μg/ml in a carbonate buffer at pH 9.6. After 4 washes, the wells were incubated for 1 hour at 37° C. with a saline phosphate buffer at pH 7.2, while adding 5% bovine serum albumin. Finally, the plates were incubated for 30 minutes at room temperature with a saline phosphate buffer at pH 7.2 to which 10% sucrose was added. Once emptied, the microplates were dried overnight under vacuum, and then packaged in the presence of a desiccant until use.
The assay of samples is carried out by dispensing […] of serum or plasma (heparinized plasma or EDTA plasma) into each of the wells. After 1 hour at 37° C., the microplate is washed. 100 μl of monoclonal or polyclonal anti-CPSE antibodies conjugated to peroxidase are dispensed. The wells are incubated for 1 hr at 37° C. and washed again. The antibodies remaining attached to the walls are developed by adding 3,3′,5,5′tetramethyl benzidine. After completion of the reaction, the absorbance is read at 450 nm.
Five dogs with signs of BPH (see inclusion criteria above) were treated with osaterone acetate (YPOZANE®, Virbac). This molecule is an anti-androgen, which acts on the prostatic parenchyma. The CPSE level was measured at days D15 and D0. The dogs were treated as recommended and were given from 0.25-0.5 mg/kg/day of osaterone acetate, for a period of 7 days. Serum was collected prior to any treatment and after 15 days. The CPSE level was measured in the different samples.
Dogs with signs of PBH were treated with osaterone acetate, as recommended by the manufacturer. The serum CPSE level in these dogs was measured before the treatment and after 15 days.

dogs with signs of BPH [2] = assay: Anti-androgen treatment follow up: prostate size by digital rectal examination; assay type: in vivo, dog; settings: all five treated dogs, after treatment

## CC(=O)O[C@]1(C(C)=O)CC[C@H]2[C@@H]3C=C(Cl)C4=CC(=O)OC[C@]4(C)[C@H]3CC[C@@]21C [osaterone acetate]
Dogs with signs of BPH [1]; five dogs with signs of BPH, D0 vs D15
  change in serum CPSE level between before treatment and treatment completed: decrease in the serum CPSE level
Dogs with signs of BPH [1]; serum, individual Dogs 1-5 with signs of BPH, D+15, 0.25-0.5 mg/kg/day for 7 days
  CPSE (ng/ml), D + 15: 15 ng/mL and 21 ng/mL and 40 ng/mL and 10 ng/mL and 36 ng/mL
Dogs with signs of BPH [1]; serum, individual dogs C1-C5 with signs of BPH, 15 days after first sampling, 0.25-0.5 mg/kg/day for 7 days
  CPSE (ng/ml), Visit 2: 15 ng/mL and 21 ng/mL and 40 ng/mL and 10 ng/mL and 36 ng/mL
Dogs with signs of BPH [2]
  size of the prostate by digital rectal examination: return to a normal size of the prostate
